According to US20220041647A1, “ESTRA-1,3,5(10)-TRIENE COMPOUNDS CONDENSED IN POSITION 16(17) WITH A PYRAZOLE RING AS INHIBITORS OF 17-HSD1” (FORENDO PHARMA LTD, priority 2018, published 2022):

Assays:
[1] = target: T1, recombinant human 17β-HSD1 (Homo sapiens, UniProt P14061); assay: Inhibition of recombinant human 17β-HSD1 (estrone to estradiol conversion, HPLC/radioactivity); type: biochemical; conditions: compound 100 nM; 30 nM estrone, 1 mM NADPH, 30 min RT
T1 construct: made in house; host or cells: Sd9 (Sf9) insect cells, baculovirus (Bac to Bac Expression System)
T1 sequence (P14061 1-328): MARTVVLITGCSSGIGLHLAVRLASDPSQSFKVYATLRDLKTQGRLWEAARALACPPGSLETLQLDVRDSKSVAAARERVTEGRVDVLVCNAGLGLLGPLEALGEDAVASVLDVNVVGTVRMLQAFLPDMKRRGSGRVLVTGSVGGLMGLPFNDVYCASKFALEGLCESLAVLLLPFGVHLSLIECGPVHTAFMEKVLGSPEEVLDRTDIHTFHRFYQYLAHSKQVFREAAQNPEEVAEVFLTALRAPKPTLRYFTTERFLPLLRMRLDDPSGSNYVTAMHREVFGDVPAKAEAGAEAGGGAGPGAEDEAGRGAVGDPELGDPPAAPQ
In short: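 Microsomal human 17β-HSD1 from Sf9 baculovirus (1 μg/ml) was incubated 30 min at RT in 20 mM KH2PO4 pH 7.4 with 30 nM ^3H-estrone, 1 mM NADPH and inhibitor at 1 μM or 0.1 μM (1% DMSO). Estrone and estradiol were separated by HPLC with radioactivity detection. % inhibition = 100 − % conversion relative to uninhibited control.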

[2] = tested on: HSD1 enzyme that is expressed in rabbit placenta tissue; assay: Inhibition of E1 to E2 conversion in rabbit placenta tissue homogenate; type: biochemical; conditions: compound 100 nM, 30 nM estrone, 1 mM β-NADPH, 30 min
In short: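 Rabbit placenta homogenate (20 mM KH2PO4, 1 mM EDTA, pH 7.4) incubated 30 min with 1 mM β-NADPH, 30 nM estrone plus 5 nM [3H]-estrone tracer, and inhibitor at 1 μM or 0.1 μM (1% DMSO). Stopped with TCA; estrone and estradiol resolved by HPLC with scintillation counting; % inhibition = 100 − % conversion relative to uninhibited control.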

`C[C@]12CCC3c4cccc(F)c4CCC3C1[C@H](CCC(=O)Nc1cc(F)ccn1)c1c[nH]nc12` (stereo partly drawn) [Compound 15, 3-((8aS,12S)-3-fluoro-8a-methyl-1,2,6b,7,8,8a,10,12,12a,12b-decahydronaphtho[2′,1′:4,5]indeno[1,2-c]pyrazol-12-yl)-N-(4-fluoropyridin-2-yl)propanamide] was tested, and the inhibition at 0.1 µM [1] was 96% and the “Rabbit placenta inhibition % @100 nM” value [2] was 64%.
`C[C@]12CCC3c4ccc(Cl)cc4CCC3C1[C@H](CCC(=O)Nc1cc3c([nH]c1=O)CCCC3)c1c[nH]nc12` (stereo partly drawn) [Compound 123, 3-((8aS,12S)-4-chloro-8a-methyl-1,2,6b,7,8,8a,10,12,12a,12b-decahydronaphtho[2′,1′:4,5]indeno[1,2-c]pyrazol-12-yl)-N-(2-oxo-1,2,5,6,7,8-hexahydroquinolin-3-yl) propanamide] was tested, and the inhibition at 0.1 µM [1] was 87% and the “Rabbit placenta inhibition % @100 nM” value [2] was 17%.
For `C[C@]12CCC3c4cccc(F)c4CCC3C1[C@H](CCC(=O)Nc1cc3c([nH]c1=O)CCCC3)c1c[nH]nc12` (stereo partly drawn) [Compound 30, 3-((8aS,12S)-3-fluoro-8a-methyl-1,2,6b,7,8,8a,10,12,12a,12b-decahydronaphtho[2′,1′:4,5]indeno[1,2-c]pyrazol-12-yl)-N-(2-oxo-1,2,5,6,7,8-hexahydroquinolin-3-yl)propanamide], the inhibition at 0.1 µM [1] was 95% and the “Rabbit placenta inhibition % @100 nM” value [2] was 53%.
In the case of `COc1ccc(NC(=O)CC[C@@H]2c3c[nH]nc3[C@@]3(C)CCC4c5ccccc5CCC4C23)nn1` (stereo partly drawn) [Compound 156, N-(6-methoxypyridazin-3-yl)-3-((8aS,12S)-8a-methyl-1,2,6b,7,8,8a,10,12,12a,12b-decahydronaphtho[2′,1′:4,5]indeno[1,2-c]pyrazol-12-yl)propanamide], the inhibition at 0.1 µM [1] is reported as 81% and the “Rabbit placenta inhibition % @100 nM” value [2] is reported as 56%.
With `COc1ccc(NC(=O)CC[C@@H]2c3c[nH]nc3[C@@]3(C)CCC4c5ccccc5CCC4C23)nc1` (stereo partly drawn) [Compound 141, N-(5-methoxypyridin-2-yl)-3-((8aS,12S)-8a-methyl-1,2,6b,7,8,8a,10,12,12a,12b-decahydronaphtho[2′,1′:4,5]indeno[1,2-c]pyrazol-12-yl)propanamide] the inhibition at 0.1 µM [1] was 93% and the “Rabbit placenta inhibition % @100 nM” value [2] was 35%.
For `COc1ccnc(NC(=O)CC[C@@H]2c3c[nH]nc3[C@@]3(C)CCC4c5ccc(F)cc5CCC4C23)c1` (stereo partly drawn) [Compound 90, 3-((8aS,12S)-4-fluoro-8a-methyl-1,2,6b,7,8,8a,10,12,12a,12b-decahydronaphtho[2′,1′:4,5]indeno[1,2-c]pyrazol-12-yl)-N-(4-methoxypyridin-2-yl)propanamide], the inhibition at 0.1 µM [1] was 70% and the “Rabbit placenta inhibition % @100 nM” value [2] was 30%.
`Cc1ccnc(NC(=O)CC[C@@H]2c3c[nH]nc3[C@@]3(C)CCC4c5ccccc5CCC4C23)c1` (stereo partly drawn) [Compound 168, 3-((8aS,12S)-8a-methyl-1,2,6b,7,8,8a,10,12,12a,12b-decahydronaphtho[2′,1′:4,5]indeno[1,2-c]pyrazol-12-yl)-N-(4-methylpyridin-2-yl)propanamide] was tested, and the inhibition at 0.1 µM [1] was 90% and the “Rabbit placenta inhibition % @100 nM” value [2] was 58%.
For `C[C@]12CCC3c4ccccc4CCC3C1[C@H](CCC(=O)Nc1cnccn1)c1c[nH]nc12` (stereo partly drawn) [Compound 189, 3-((8aS,12S)-8a-methyl-1,2,6b,7,8,8a,10,12,12a,12b-decahydronaphtho[2′,1′:4,5]indeno[1,2-c]pyrazol-12-yl)-N-(pyrazin-2-yl)propanamide], the inhibition at 0.1 µM [1] was 90% and the “Rabbit placenta inhibition % @100 nM” value [2] was 46%.
For `C[C@]12CCC3c4ccccc4CCC3C1[C@H](CCC(=O)Nc1cc(F)ccn1)c1c[nH]nc12` (stereo partly drawn) [Compound 162, N-(4-fluoropyridin-2-yl)-3-((8aS,12S)-8a-methyl-1,2,6b,7,8,8a,10,12,12a,12b-decahydronaphtho[2′,1′:4,5]indeno[1,2-c]pyrazol-12-yl)propanamide], the inhibition at 0.1 µM [1] was 91% and the “Rabbit placenta inhibition % @100 nM” value [2] was 44%.
